Results taken from patent US9328138B2 (priority 2011, dated 2016).
Structures can show the parent of a compound that is named as a salt.

What was measured:
[1] = target: HCV NS3 protease genotype 3a (3A-1) (Hepatitis C virus genotype 3a, UniProt Q81258); experiment: HCV NS3 protease time-resolved fluorescence (TRF) assay, genotype 3a; assay type: biochemical; details: Ki 3a
Outline: (§1)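 Time-resolved fluorescence, ex 340/em 615 nm, 400 μs delay; IC50 by four-parameter fit. Enzyme preincubated with compound 10 min, then TRF substrate 25 nM final added and reaction run 6 h at RT. Buffer HEPES pH 7.5 with NaCl, glycerol, Triton X-100, DTT, PEG 8000.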

[2] = target: T1, HCV genotype 1b (BK) NS3 modified enzyme with a R155K mutation (Hepatitis C virus genotype 1b, UniProt P26663, R1181K); experiment: HCV NS3 protease time-resolved fluorescence (TRF) assay, genotype 1b R155K; assay type: biochemical; details: Ki 1b R155K
T1 construct: HCV genotype 1b (BK) NS3 modified enzyme
Outline: as §1

[3] = first of two values printed in the cell (not explained)
[4] = second of two values printed in the cell (not explained)
[5] = genotype 1b (BK) NS3 R155K, single value

`C=C[C@@H]1C[C@]1(NC(=O)[C@@H]1C[C@@H]2CN1C(=O)[C@H](C1CCCCC1)NC(=O)O[C@@H]1C[C@H]1CCCCCc1c(nc3ccccc3c1OCCCNC1CCC1)O2)C(=O)NS(=O)(=O)C1(C)CC1` [Example 242, N-(3-{[(1aR,5S,8S,10R,22aR)-5-cyclohexyl-8-{[(1R,2S)-2-ethenyl-1-{[(1-methylcyclopropyl)sulfonyl]carbamoyl}cyclopropyl]carbamoyl}-3,6-dioxo-1,1a,3,4,5,6,9,10,18,19,20,21,22,22a-tetradecahydro-8H-7,10-methanocyclopropa[18,19][1,10,3,6]dioxadiazacyclononadecino[11,12-b]quinolin-17-yl]oxy}propyl)cyclobutanaminium formate] gave a Ki [1] of 0.935 nM, a Ki [2, 3] of 0.013 nM and a Ki [2, 4] of 0.072 nM.

Molecule `C=C[C@@H]1C[C@]1(NC(=O)[C@@H]1C[C@@H]2CN1C(=O)[C@H](C1CCCCC1)NC(=O)O[C@@H]1C[C@H]1CCCCCc1c(nc3ccccc3c1OC1CC3COCC(C1)N3CCOC)O2)C(=O)NS(=O)(=O)C1(C)CC1` (stereo partly drawn) [Example 289, (1aR,5S,8S,10R,22aR)-5-cyclohexyl-N-[(1R,2S)-2-ethenyl-1-{[(1-methylcyclopropyl)sulfonyl]carbamoyl}cyclopropyl]-17-{[9-(2-methoxyethyl)-3-oxa-9-azabicyclo[3.3.1]non-7-yl]oxy}-3,6-dioxo-1,1a,3,4,5,6,9,10,18,19,20,21,22,22a-tetradecahydro-8H-7,10-methanocyclopropa[18,19][1,10,3,6]dioxadiazacyclononadecino[11,12-b]quinoline-8-carboxamide] has a Ki [1] of 3.27 nM, a Ki [2, 3] of 0.03 nM and a Ki [2, 4] of 0.197 nM.

`C=C[C@@H]1C[C@]1(NC(=O)[C@@H]1C[C@@H]2CN1C(=O)[C@H](C1CCCC1)NC(=O)O[C@@]1(C)CCC[C@@H]1CCCCCc1c(nc3ccccc3c1O)O2)C(=O)NS(=O)(=O)C1CC1` [Example 30, (3aS,7S,10S,12R,24aS)-7-cyclopentyl-N-{(1R,2S)-1-[(cyclopropylsulfonyl)carbamoyl]-2-ethenylcyclopropyl}-19-hydroxy-3a-methyl-5,8-dioxo-1,2,3,3a,5,6,7,8,11,12,20,21,22,23,24,24a-hexa-decahydro-10H-9,12-methanocyclopenta[18,19] [1,10,3,6]dioxadiazacyclononadecino[11,12-b] quinoline-10-carboxamide] showed a Ki [1] of 4.9 nM and a Ki [2, 5] of 1.3 nM.

`C=C[C@@H]1C[C@]1(NC(=O)[C@@H]1C[C@@H]2CN1C(=O)[C@H](C1CCCCC1)NC(=O)O[C@@H]1C[C@H]1CCCCCc1c(nc3ccccc3c1OC1CCN(C)CC1)O2)C(=O)NS(=O)(=O)C1(C)CC1` [Example 211, (1aR,5S,8S,10R,22aR)-5-cyclohexyl-N-[(1R,2S)-2-ethenyl-1-{[(1-methylcyclopropyl)sulfonyl]carbamoyl}cyclopropyl]-17-[(1-methylpiperidin-4-yl)oxy]-3,6-dioxo-1,1a,3,4,5,6,9,10,18,19,20,21,22,22a-tetradecahydro-8H-7,10-methanocyclopropa[18,19][1,10,3,6] dioxadiazacyclononadecino[11,12-b]quinoline-8-carboxamide] gave a Ki [1] of 0.3 nM and a Ki [2, 5] of 0.033 nM.

`C=C[C@@H]1C[C@]1(NC(=O)[C@@H]1C[C@@H]2CN1C(=O)[C@H](C1CCCCC1)NC(=O)O[C@@H]1C[C@H]1CCCCCc1c(nc3ccccc3c1OC1CCN(C(=O)OC(C)(C)C)CC1)O2)C(=O)NS(=O)(=O)C1(C)CC1` [Example 235, tert-butyl 4-{[(1aR,5S,8S,10R,22aR)-5-cyclohexyl-8-{[(1R,2S)-2-ethenyl-1-{[(1-methylcyclopropyl)sulfonyl]carbamoyl}cyclopropyl]carbamoyl}-3,6-dioxo-1,1a,3,4,5,6,9,10,18,19,20,21,22,22a-tetradecahydro-8H-7,10-methanocyclopropa[18,19][1,10,3,6]dioxadiazacyclononadecino[11,12-b]quinolin-17-yl]oxy}piperidine-1-carboxylate] showed a Ki [1] of 203 nM, a Ki [2, 3] of 0.53 nM and a Ki [2, 4] of 4.36 nM.

Molecule `C=C[C@@H]1C[C@]1(NC(=O)[C@@H]1C[C@@H]2CN1C(=O)[C@H](C(C)(C)C)NC(=O)O[C@@H]1C[C@H]1CCCCCc1c(nc3c(F)cccc3c1OCCN1CCOCC1)O2)C(=O)NS(=O)(=O)C1(C)CC1` [Example 126, (1aR,5S,8S,10R,22aR)-5-tert-butyl-N-[(1R,2S)-2-ethenyl-1-{[(1-methylcyclopropyl)sulfonyl]carbamoyl}cyclopropyl]-13-fluoro-17-[2-(morpholin-4-yl)ethoxy]-3,6-dioxo-1,1a,3,4,5,6,9,10,18,19, 20,21,22,22a-tetradecahydro-8H-7,10-methanocyclopropa[18,19][1,10,3,6] dioxadiazacyclononadecino[11,12-b] quinoline-8-carboxamide] has a Ki [1] of 7.7 nM and a Ki [2, 5] of 0.4 nM.

Molecule `C=C[C@@H]1C[C@]1(NC(=O)[C@@H]1C[C@@H]2CN1C(=O)[C@H](C1CCCC1)NC(=O)O[C@@H]1CCC[C@H]1CC/C=C/Cc1c(nc3ccccc3c1OCC)O2)C(=O)NS(=O)(=O)C1CC1` [Example 1, (3aR,7S,10S,12R,21E,24aS)-7-cyclopentyl-N-{(1R,2S)-1-[(cyclopropylsulfonyl)carbamoyl]-2-ethenylcyclopropyl}-19-ethoxy-5,8-dioxo-1,2,3,3a,5,6,7,8,11,12,20,23,24,24a-tetradecahydro-10H-9,12-methanocyclopenta[18,19][1,10,3,6]dioxadiazacyclononadecino[11,12-b]quinoline-10-carboxamide] has a Ki [1] of 6.1 nM and a Ki [2, 5] of 0.25 nM.

Molecule `COc1c2c(nc3ccccc13)O[C@@H]1C[C@H]3C(=O)N[C@]4(C(=O)NS(=O)(=O)C5(C)CC5)C[C@H]4/C=C\CCCCC[C@H](NC(=O)O[C@@H]4C[C@H]4CCCCC2)C(=O)N3C1` [Example 305, (1aR,5S,11Z,12aS,13aR,16S,19R,31aR)-26-methoxy-N-[(1-methylcyclopropyl)sulfonyl]-3,15,33-trioxo-1,1a,3,4,5,6,7,8,9,10,12a,13,15,16,18,19,27,28,29,30,31,31a-docosahydro-5,17:16,19-dimethanodicyclopropa[12,13:28,29][1,20,3,14,17]dioxatriazacyclononacosino[21,22-b]quinoline-13a(14H)-carboxamide] has a Ki [1] of 2 nM and a Ki [2, 5] of 0.066 nM.

With `C=C[C@@H]1C[C@]1(NC(=O)[C@@H]1C[C@@H]2CN1C(=O)[C@H](C(C)(C)C)NC(=O)O[C@@H]1C[C@H]1CCCCCc1c(nc3ccccc3c1OCCCN(C)Cc1n[nH]c(=O)[nH]1)O2)C(=O)NS(=O)(=O)C1(C)CC1` [Example 199, (1aR,5S,8S,10R,22aR)-5-tert-butyl-N-[(1R,2S)-2-ethenyl-1-{[(1-methylcyclopropyl)sulfonyl]carbamoyl}cyclopropyl]-17-(3-{methyl[(5-oxo-4,5-dihydro-1H-1,2,4-triazol-3-yl)methyl]amino}propoxy)-3,6-dioxo-1,1a,3,4,5,6,9,10,18,19,20,21, 22,22a-tetradecahydro-8H-7,10-methanocyclopropa[18,19][1,10,3,6] dioxadiazacyclononadecino[11,12-b] quinoline-8-carboxamide] the Ki [1] was 0.74 nM and the Ki [2, 5] was 0.057 nM.

`C=C[C@@H]1C[C@]1(NC(=O)[C@@H]1C[C@@H]2CN1C(=O)[C@H](C(C)(C)C)NC(=O)O[C@@H]1C[C@H]1CCCCCc1c(nc3ccccc3c1OCCN1CCCC1)O2)C(=O)NS(=O)(=O)C1(C)CC1` [Example 135] showed a Ki [1] of 1.8 nM and a Ki [2, 5] of 0.2 nM.
